Data taken from US20120045543A1, “SHELF-LIFE EXTENSION OF SOUR DOUGH BAKED GOODS” (ERNST BÖCKER GMBH & CO. KG, priority 2009, published 2012).

How the values were obtained:
A. niger = assay: challenge experiment, mycelial growth on bread; format: cell-based
[1] = loss of propionic acid during baking; format: physicochemical; settings: during baking and up to 24 h thereafter
Experimental: Using the method known to those skilled in the art, the loss of propionic acid was determined in order to find out how much propionic acid is present in the various intermediates (dough versus baked product). […] This may be explained by the fact that at the end of the baking time the bread crumb has a temperature of at most 98° C.-106° C. Propionic acid has a boiling point of 141° C. and is therefore retained in the bread crumb during the baking to completion and also after cooling, and therefore can effect the desired protection against mold.

P. roqueforti = assay: challenge experiment on inoculated bread slices; format: cell-based; settings: based on initial flour weight
Excerpt: The inoculated bread slices, already after 2-4 days, had mycelia of P. roqueforti. In order to inhibit this mold fungus growth, a concentration of greater than 0.4% w/w propionic acid (based on the initial flour weight) was required.

bacteria = settings: cited from earlier work
mold fungi = settings: pH 5.5; depending on the fungal species; cited from earlier work
[2] = cited from earlier work
mold = assay: storage study of bread, mold-free time; settings: bread with 0.4% propionic acid added

CCC(=O)O [propionic acid]
chemical addition needed to achieve comparable preservation results (A. niger; compared with co-fermentation giving 0.2% propionic and 0.2% acetic acid): at least 0.4%
concentration suppressing growth of A. niger up to the end of the study (A. niger; propionic acid alone, breads, challenge experiment): 0.3%
concentration of propionic acid during baking [1]: remained roughly constant
concentration required to inhibit mold fungus growth (P. roqueforti): greater than 0.4 % w/w
concentration necessary for inhibition of bacteria (bacteria): 1.6-6%
concentration inhibiting growth of mold fungi (mold fungi): 0.0125-1.25%
toxicity on oral intake [2]: not acutely toxic
mold-free time longer compared with propionic acid-free bread (mold): 14 days
